From US8466195B2, “Methods and compositions for treating complications of diabetes and vascular diseases using flavones” (Salk Institute for Biological Studies, priority 2009, dated 2013) come the findings set out here.

For one test, the system named is STZ-diabetic rats. The experiment in a line: Kidney function (urine albumin/creatinine ratio) in STZ-diabetic rats. It is filed as in vivo, Sprague-Dawley rats. The conditions noted are these: 25 mg/kg/day fisetin; 6 and 8 weeks after induction of diabetes. As to the method: (§1) Urine albumin concentration was determined by competitive enzyme-linked immunoadsorbent assay using an Albuwell M kit (Exocell, Philadelphia, Pa.). Urine creatinine concentration was determined by Jaffe's reaction of alkaline picrate with creatinine using a Creatinine Companion kit (Exocell). Results are expressed as the urine albumin-to-creatinine ratio (micrograms per milligram).
Adult female Sprague-Dawley rats were made diabetic with STZ and treated with vehicle or 25 mg/kg/day fisetin. Kidney function was assessed by measuring the albumin/creatinine ratio in the urine at 6 and 8 weeks following induction of diabetes. Fisetin reduced diabetes-induced proteinuria. Data are mean±SEM of N=7-8/group.

Test [1] deals with Akita mice. Put plainly: Urine albumin/creatinine ratio in Akita mice. The class given is in vivo. The conditions noted are these: fisetin 0.05% in diet for 18 weeks. The procedure: as §1
Male Akita mice were fed control diet or fisetin (0.05%) for 18 weeks beginning at 6 weeks of age. Kidney hypertrophy was assessed by weighing the kidneys. Kidney function was assessed by measuring the albumin/creatinine ratio in the urine. Fisetin reduced diabetes-induced renal hypertrophy and proteinuria. All data are mean±SD of N=5-7/group.

In test [2] the test system is Akita mice. The experiment in a line: Open field test in Akita mice. The following applies: fisetin 0.05% in diet for 18 weeks. The class given is in vivo. The procedure: The open field test was performed using MED Associates hardware and the Activity Monitor software according to the manufacturer's instructions (MED Associates Inc, St. Albans, Vt., USA). The open-field activity monitoring system contains a subject containment environment (chamber), infrared (I/R) sources and sensors. To perform the test, each mouse was placed in the testing chamber and the activity tracked by the Activity Monitor software for 30 min. The scanning was done every 50 ms. The behavioral parameters derived from the open field test included the following: distance traveled, ambulatory time and counts, stereotypic counts and time, resting time, vertical counts and time, jumping counts and time, average velocity, and ambulatory episodes.
Male Akita mice were fed control diet or fisetin (0.05%) for 18 weeks beginning at 6 weeks of age. Locomotor activity was measured in the open field test. Decreased locomotor activity is an indicator of elevated anxiety which is characteristic of diabetics in poor glycemic control. […] All data are mean±SD of N=5-7/group.

For test [3], the system named is HT22 cells. Put plainly: GSH level in HT22 cells. It is filed as cell-based. The conditions noted are these: 10 μM fisetin, absence or presence of 5 mM glutamate, 24 hr. As to the method:
(§2) As shown in panel (A) of FIG. 3, HT22 cells were untreated (ct) or treated with 10 μM fisetin (fis) in the absence of presence of 5 mM glutamate for 24 hr and GSH was measured enzymatically and normalized to protein. As shown in panel (B) of FIG. 3, HT22 cells in 96-well plates were treated with 5 mM glutamate and the indicated concentrations of fisetin. MTT reduction was measured after 24 hr.

For the next test, the target named is BSA (Bos taurus, UniProt P02769). Put plainly: Glycation of BSA by glucose (anti-CML Western blot and fluorescence assay). The conditions noted are these: 100 mM glucose, 14 days 37° C., 100 μM fisetin; Western blotting with a-CML and fluorescence assay. It is filed as biochemical. As to the method: In reference to FIG. 1, BSA was incubated with either 100 mM glucose (G) or 100 mM methylglyoxal (MG) for 14 days at 37° C. plus or minus 100 μM fisetin. The BSA was dialyzed vs. PBS run on SDS-PAGE and blotted with anti-carboxymethyl lysine (CML) (a glucose AGE) or anti-MG adducts from Dr. Brownlee. […] In FIG. 1, panel B, anti-MG only reacts with MG treated BSA and also causes protein polymerization. In FIG. 1, panel C, co-incubation with fisetin results in inhibition of glucose glycation in 2 assays, Western blotting with a-CML (BL, hatched bars) and a fluorescence assay for protein glycation (FL, clear bars). In FIG. 1, panel D, fisetin inhibited protein glycation caused by high glucose exposure of human brain microvascular cells. Cells were exposed to either 5 mM (−Glu) or 25 mM (+Glu) glucose for 5 days plus (F) or minus (C) 1 μM fisetin. Cells were then harvested and blotted with either anti-CML or MG antisera.
(Immunoblotting shows a protein as a band on a membrane.)

The subject of the next test is C-reactive protein. The experiment in a line: Serum C-reactive protein in Akita mice (Western blot). The class given is in vivo. The conditions noted are these: fisetin-rich diet. As to the method: C-reactive protein in serum was measured by SDS-PAGE and Western blotting analysis of mouse serum using an antibody from R&D.
C-reactive protein is an acute phase protein that increases during chronic inflammation such as is seen in diabetes. Equal amounts of serum from wild type, wild type+fisetin, Akita and Akita+fisetin mice were analyzed by SDS-PAGE and immunoblotting with an antibody to C-reactive protein. Samples from 6-7 mice were analyzed and the average intensity of the C-reactive protein band determined. The data were analyzed by ANOVA followed by Tukey's post test. *** P<0.001.

The test system of test [4] is HT22 cells. Put plainly: Oxidative glutamate toxicity (MTT cell viability). The following applies: 5 mM glutamate, fisetin, 24 hr. The class given is cell-based. As to the method:
Cell viability was determined by a modified version of 3-(4,5-dimethylthiazol-2-yl)-2,5-diphenyl tetrazolium bromide (MTT) assay based on the standard procedure (Hansen M B et al. J. Immunol. Methods 119:203-210, 1989). Briefly, cells were seeded onto 96-well microtiter plates at a density of 5×10^3 cells per well. The next day, the medium was replaced with DMEM supplemented with 7.5% DFCS and the cells were treated with the different fisetin derivatives alone or in the presence of 5 mM glutamate. Twenty four hours later, the medium in each well was aspirated and replaced with fresh medium containing 2.5 μg/ml MTT. After 4 hours of incubation at 37° C., cells were solubilized with 100 μA of a solution containing 50% dimethylformamide and 20% SDS (pH 4.7). The absorbance at 570 nm was measured on the following day with a microplate reader (Molecular Devices). Results obtained from the MTT assay correlated directly with the extent of cell death as confirmed visually. Controls employing wells without cells were used to determine the effects of the agents upon the assay chemistry.
as §2

For another test, the system named is HT-22 nerve cells. The experiment in a line: HT-22 nerve cells exposed to glutamate: MG adducts and viability. The class given is cell-based. The conditions noted are these: 5 mM glutamate, 2 μM fisetin. As to the method:
HT-22 nerve cells were exposed to 0.5 mM glutamate and Glo-1 expression monitored at 8 and 24 hrs. In panel (B) of FIG. 2, Fisetin is shown to prevent both cell death and protein glycation. HT-22 cells were exposed to 5 mM glutamate in the presence or absence of 2 μM fisetin. MG adducts were determined by Western blotting 8 hrs after glutamate exposure and viability after 24 hrs. Actin is at the bottom of the blot. In panel (C) of FIG. 2, the Glo-1 inhibitor s-p-bromobenzylglutathione […] is shown to potentiate cell death. HT-22 cells were exposed to 1 mM glutamate plus or minus 10 or 20 μM BBGD.

BSA, sequence (P02769 25-607): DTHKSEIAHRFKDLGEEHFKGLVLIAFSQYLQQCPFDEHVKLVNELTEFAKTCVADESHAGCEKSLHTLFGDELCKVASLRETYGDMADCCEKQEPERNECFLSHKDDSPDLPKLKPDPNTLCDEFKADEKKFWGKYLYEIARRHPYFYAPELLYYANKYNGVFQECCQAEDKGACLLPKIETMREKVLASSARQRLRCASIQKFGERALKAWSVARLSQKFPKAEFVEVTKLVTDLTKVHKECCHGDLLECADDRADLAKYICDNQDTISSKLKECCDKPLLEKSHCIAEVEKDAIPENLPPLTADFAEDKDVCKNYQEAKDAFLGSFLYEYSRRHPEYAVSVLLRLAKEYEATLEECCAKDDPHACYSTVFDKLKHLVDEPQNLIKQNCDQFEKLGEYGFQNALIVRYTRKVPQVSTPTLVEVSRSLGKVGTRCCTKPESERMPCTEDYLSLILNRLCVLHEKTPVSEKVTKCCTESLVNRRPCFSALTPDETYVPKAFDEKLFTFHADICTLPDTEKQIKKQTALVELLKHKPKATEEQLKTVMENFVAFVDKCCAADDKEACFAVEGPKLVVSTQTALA

Turning to `O=c1c(O)c(-c2ccc(O)c(O)c2)oc2cc(O)ccc12` [fisetin, 2-(3,4-dihydroxyphenyl)-3,7-dihydroxychromen-4-one], in the test with STZ-diabetic rats, the “diabetes-induced proteinuria (urine albumin/creatinine ratio)” value is “reduced”. The “proteinuria (urine albumin/creatinine ratio)” value in the test on Akita mice [1] is “almost completely prevented”; with Akita mice [1] (listed as Fisetin) it was “reduced”. Also, the “locomotor activity in the open field test (distance traveled, ambulatory episodes)” value is reported as “restored to near normal values” in the test with Akita mice [2] and “restored locomotor activity to nearly control levels” in the test with Akita mice [2] (listed as Fisetin). In addition, in the test on HT22 cells [3], the GSH result is “Upregulation”. Moreover, the “glucose glycation of BSA” value at BSA is reported as “inhibition”. Moreover, in the test on C-reactive protein, the “diabetes-induced increase in serum C-reactive protein” value is on record as “largely prevented”. In the test on HT22 cells [4], the “glutamate toxicity (MTT reduction)” value is “Reduction”. Further, the “protein glycation (MG adducts)” value in the test on HT-22 nerve cells (Western blotting 8 hrs after glutamate) is on record as “prevent”. For the same compound, the cell death entry with HT-22 nerve cells (viability after 24 hrs) was “prevent”.
